# Results: patent US8410056B2, “Pro-oxidant anti-cancer compounds” (priority 2006, dated 2013)
# Entries after “also recorded” stand apart in the source; their conditions may differ. Ends that are not written are not given here.
# B1: TRAIL: human recombinant tumor necrosis factor-related apoptosis—inducing ligand (protein, UniProt P50591 1-281, looked up)
# Tumor necrosis factor ligand …: MAMMEVQGGPSLGQTCVLIVIFTVLLQSLCVAVTYVYFTNELKQMQDKYSKSGIACFLKEDDSYWDPNDEESMNSPCWQVKWQLRQLVRKMILRTSEETISTVQEKQQNISPLVRERGPQRVAAHITGTRGRSNTLSSPNSKNEKALGRKINSWESSRSGHSFLSNLHLRNGELVIHEKGFYYIYSQTYFRFQEEIKENTKNDKQMVQYIYKYTSYPDPILLMKSARNSCWSKDAEYGLYSIYQGGIFELKENDRIFVSVTNEHLIDMDHEASFFGAFLVG
# How the values were obtained:
# [1] = system: C1271; conditions: Kogure et al, 2004; cited from earlier work
# [2] = system: MDA-MB-453, MCF-7 and NeuTL breast cancer cells; experiment: ATP bioluminescence assay; format: cell-based, human; murine; conditions: 6 or 24 h; normoxia or hypoxia
# Description: (§1) Cell culture and treatment. […] Cells were cultured in DMEM with 10% FCS, 100 U/ml penicillin and 100 μg/ml streptomycin at 37° C. in a humidified atmosphere of 5% CO2. Mitochondrial complex I-deficient (Breen and Scheffler 1979; DeFrancesco et al 1976; Scheffler et al 2004) and complex II-deficient cells (Albayrak et al 2003; Oostveen et al 1995) were grown in DMEM with 10% FCS, […] glucose and non-essential amino acids.
# (§2) At approximately 70% confluency, cells were treated with up to 50 μM α-TOS (Sigma), up to 100 μM 3-BP (Aldrich) or 30 ng/ml of human recombinant tumor necrosis factor-related apoptosis—inducing ligand (TRAIL) (Weber et al, 2002) under normoxic or hypoxic conditions. For hypoxia, cells overlaid with nitrogen-purged medium were placed in a hypoxic chamber pre-flushed extensively with nitrogen. The hypoxic chamber with cells was then placed in the incubator as required. α-TOS was dissolved in ethanol and used such that the final ethanol concentration in cell culture medium was <0.1% (v/v). Stock solutions of 3-BP were prepared in PBS prior to use.
# ATP measurement. MDA-MB-453 and NeuTL cells were seeded at 2×10^5 per ml and MCF-7 cells at 1.2×10^5 per ml into 96-well tissue culture microtitre plates and allowed to recover overnight before use. Cells were incubated for 6 or 24 h with α-TOS or 3-BP under normoxia or hypoxia as described above. ATP levels were then measured using an ATP bioluminescence assay kit HSII (Roche Applied Science) according to the manufacturer's instructions. Briefly, control or treated cells were transferred into black microtitre plates after incubation for 5 min at room temperature with the cell lysis reagent. Luciferase reagent was added and the signal detected immediately using a Fluorostar Optima plate reader (BMG Labtech). Triplicate wells were read for each condition and data evaluated using a standard calibration curve prepared with known concentrations of ATP.
# [3] = system: MDA-MB-453 cells; experiment: Apoptosis, annexin V-FITC method; format: cell-based, human; conditions: for apoptosis: MDA-MB-453 (erbB2-high), normoxia or hypoxia; for apoptosis after Akt1 knock-down: pre-treated with 60 pM Akt1 siRNA for 24 h, then drug 24 h
# Description: as §1, §2
# Apoptosis assessment. Apoptosis was quantified using the annexin V-FITC method, which detects phosphatidyl serine externalized in the early phases of apoptosis (Boersma et al, 1996). Briefly, cells were plated at 10^5 per well in 24-well plates and, after an overnight recuperation, treated with α-TOS or 3-BP alone or in combination. Floating and attached cells were harvested, washed with PBS, resuspended in 0.2 ml binding buffer (10 mM Hepes, 140 mM NaCl, 5 mM CaCl2, pH 7.4), incubated for 30 min at 4° C. with 2 μl annexin V-FITC (PharMingen), supplemented with 200 μl of 50 μg/ml propidium iodide (PI; Sigma), and analyzed by flow cytometry (FACScalibur, Becton Dickinson) using channel 1 for annexin V-FITC binding and channel 2 for PI staining. Cell death was quantified as the percentage of cells with increased annexin V binding and PI staining.
# RNA interference (RNAi). Short-interfering RNA (siRNA) oligonucleotides with 3′-dTdT overhangs specific for Akt1 were synthesized by Qiagen. The sequences are as follows: target sequence: […] (SEQ ID NO 2); siRNA duplex sequences: sense—r([…] )dTdT (SEQ ID NO 3), antisense—r([…] )dTdT (SEQ ID NO 4). The transfection of cultured MDA-MB-453 cells with siRNA was performed using OligofectAmine (Invitrogen) and OptiMEM according to the manufacturer's instructions. Briefly, cells were allowed to reach 50% confluency and supplemented with […] siRNA pre-incubated with OligofectAmine and overlayed with OptiMEM. Cells were washed 24 h later with PBS, overlayed with complete DMEM and treated as required after an additional 24 h.
# Transfection of MDA-MB-453 cells with siRNAs was performed using OligofectAmine and OptiMEM. Briefly, cells were allowed to reach ˜50% confluency and supplemented with 60 pmol/l siRNA pre-incubated with OligofectAmine and overlayed with OptiMEM. Cells were washed 24 h later with PBS, overlaid with complete DMEM, cultured for an additional 24 h, 48 h and transgene expression confirmed using Western blotting before they were used for further experiments.
# [4] = system: MCF-7 cells; experiment: Apoptosis, annexin V-FITC method; format: cell-based, human; conditions: MCF-7 (erbB2-low); 24 h; normoxia or hypoxia
# Description: as §1, §2
# Apoptosis assessment. Apoptosis was quantified using the annexin V-FITC method, which detects phosphatidyl serine externalized in the early phases of apoptosis (Boersma et al, 1996). Briefly, cells were plated at 10^5 per well in 24-well plates and, after an overnight recuperation, treated with α-TOS or 3-BP alone or in combination. Floating and attached cells were harvested, washed with PBS, resuspended in 0.2 ml binding buffer (10 mM Hepes, 140 mM NaCl, 5 mM CaCl2, pH 7.4), incubated for 30 min at 4° C. with 2 μl annexin V-FITC (PharMingen), supplemented with 200 μl of 50 μg/ml propidium iodide (PI; Sigma), and analyzed by flow cytometry (FACScalibur, Becton Dickinson) using channel 1 for annexin V-FITC binding and channel 2 for PI staining. Cell death was quantified as the percentage of cells with increased annexin V binding and PI staining. […]
# [5] = biological target: T1, complex II/SDH-dependent activity in NeuTL cells (Mus musculus, UniProt Q8K2B3+Q9CQA3+Q9CXV1+Q9CZB0); experiment: MTT reduction assay of complex II/SDH activity in whole cells; format: cell-based, murine; conditions: for inhibition of MTT reduction after MitoQ pre-incubation: cells pre-incubated 1 h with MitoQ; for enzymatic reduction of MTT: within a few hours of treatment
# T1 construct: For specifically measuring complex II activity in whole cells; endogenous in cells; host or cells: NeuTL murine breast cancer cells
# Description: MTT assay. MTT solutions were prepared immediately before use by dissolving 2.5 mg/ml 3-(4,5-dimethyl[…] (MTT) (Sigma) in PBS alone or phenol red-free RPMI medium containing 20 mM succinic acid, pH 7.4. Stock solutions of 3-nitropropionic acid (3NPA) in ethanol, thenoyltrifluoroacetone (TTFA) in DMSO, 3-BP in PBS, α-TOS in DMSO, and MitoQ (Alleva et al, 2003, James et al, 2005) in ethanol were prepared. The drugs were tested on NeuTL cells cultured in exponential growth phase in 96-well microtitre plates using 4-8 replicate wells per dilution assayed. To assess the ability of MitoQ to restore MTT reduction, cells were pre-incubated for 60 min with 2 or 5 μM MitoQ. Final concentrations of ethanol or DMSO in cultures were ≦0.1%. Treated and control cells were allowed to reduce MTT to blue formazan crystals for 2 or 4 h at 37° C. and 5% CO2. After incubation, culture supernatants were removed except for 30 μl, before the formazan crystals were solubilized by addition of 150 μl DMSO, and absorbance values were measured at 570 nm using a Fluorostar Optima plate reader.
# To this end, the present inventors investigated whether α-TOS interferes with UbQ binding in complex II. For specifically measuring complex II activity in whole cells, a short-term (1-2 h) assay was used based on the reduction of the tetrazolium salt, MTT (Maehara et al, 1988). […] For this, oxidative respiration of murine NeuTL breast cancer cells was sustained on high levels of succinate (20 mM), thereby promoting the SDH activity of complex II (Maehara et al, 1988). The cells were then assayed within 1-2 h for their ability to enzymatically reduce MTT, which under conditions of high succinate becomes a specific indicator of complex II/SDH-dependent activity (Maehara et al, 1988, Berridge and Tan, 1993).
# [6] = system: erbB2 highly positive breast carcinomas; conditions: α-TOS 10 μmoles i.p. every 3 d; 3-BP 0.2 μmoles daily intratumorally
# Description: (A) Nude mice were inoculated with MCF-7 cells and, after tumors became established, the animals were treated once every 3 d with 10 μmoles per mouse of α-TOS dissolved in DMSO or with DMSO alone, by intraperitoneal (i.p.) injection. Tumor size was measured using calipers and was correlated to the size of the carcinomas at the onset of the therapy. Four animals were used in each group. The results shown are mean values±S.E. The symbol ‘*’ denotes significant difference (p<0.05). (B) Female FVB/N erbB2 mice with palpable tumors (see General Materials and Methods) received either 10 μmoles α-TOS solubilized in corn oil/4% ethanol (n=11) or the corn oil/4% ethanol alone (control, n=9) by i.p. injection once every 3 d, or 0.2 μmoles 3-BP (n=8) in PBS at the tumor site every day. Tumor size was recorded using calipers. Two independent experiments were conducted. Results are represented as mean values±S.E. The symbol ‘*’ denotes significant difference (p<0.05) in the analysis of variance between the 3-BP and α-TOS curves.
# Mouse tumor experiments. Nude mice were inoculated subcutaneously with MCF-7 cells (2×10^6 cells/mouse). After tumors developed (diameter of 3-7 mm), mice were injected intraperitoneally with 10 μmoles α-TOS in DMSO every 3 days. Control mice were injected with an equal volume (100 μl) of DMSO only. Tumor size was estimated by measuring with digital calipers. A colony of transgenic FVB/N2O2 rat c-neu mice carrying the rat HER-2/neu protooncogene driven by the MMTV promoter on the H-2^q FVB/N background (Guy et al, 1992) was established at the Griffith University Animal Facility and maintained under strict inbreeding conditions. The presence of the transgene was routinely confirmed by PCR. Approximately 70% of the female mice developed spontaneous mammary carcinomas with a mean latency time of 10 months. Female transgenic FVB/N2O2 rat c-neu mice bearing progressively growing tumors with a mean diameter of 10±5 mm were randomly assigned to control or treatment groups. Tumor size was measured using digital calipers. […]
# [7] = system: A549; conditions: cited from earlier work
# [8] = system: Jurkat; conditions: cited from earlier work
# [9] = system: B16-F1/nude mice; conditions: Kogure et al, 2005; cited from earlier work
# [10] = system: breast carcinomas with high erbB2 expression; experiment: Breast carcinomas in FVB/N2O2 c-neu mice, ultrasound imaging; format: in vivo
# Description: FIG. 11. Peptide conjugate LTVSPWY-α-TOS (SEQ ID NO 1) suppresses breast carcinomas. FVB/N2O2 c-neu female mice of >7 months of age with breast carcinomas, as detected by ultrasound imaging (USI), were treated by intraperitoneal injection of the vehicle or 5 μmol per mouse per dose of LTVSPWY-α-TOS (SEQ ID NO 1) solubilised in corn oil/ethanol (100:5, v/v) at times shown. The tumours were visualised and quantified using USI and are expressed relative to their volume at the onset of the treatment (A). […] The volume was […] at the onset of the experiment for both tumors. Data shown are mean values±SD (n=4-6) and the USI images are representative of tumours from each group.
# This example describes the targeting of an α-TOS pro-drug to cancer cells over-expressing the receptor tyrosine kinase erbB2. An adduct of α-TOS was linked to the heptapeptide LTVSPWY (SEQ ID NO 1), which peptide is known for targeting cancer cells over-expressing erbB2. […] In fact, there was an unexpected 90% relative reduction in size of treated tumors compared to the untreated control.
# [11] = system: Jurkat, HVT11, MCF7, MCF7-C3, U937, Meso-2; conditions: cited from earlier work
# [12] = system: NB4, HT93; conditions: cited from earlier work
# [13] = system: retinoic acid receptors (RARs); conditions: reporter constructs; cited from earlier work
# [14] = system: all cells; conditions: Zhang et al, 2001b; cited from earlier work
# T1 sequence (Q8K2B3 43-664): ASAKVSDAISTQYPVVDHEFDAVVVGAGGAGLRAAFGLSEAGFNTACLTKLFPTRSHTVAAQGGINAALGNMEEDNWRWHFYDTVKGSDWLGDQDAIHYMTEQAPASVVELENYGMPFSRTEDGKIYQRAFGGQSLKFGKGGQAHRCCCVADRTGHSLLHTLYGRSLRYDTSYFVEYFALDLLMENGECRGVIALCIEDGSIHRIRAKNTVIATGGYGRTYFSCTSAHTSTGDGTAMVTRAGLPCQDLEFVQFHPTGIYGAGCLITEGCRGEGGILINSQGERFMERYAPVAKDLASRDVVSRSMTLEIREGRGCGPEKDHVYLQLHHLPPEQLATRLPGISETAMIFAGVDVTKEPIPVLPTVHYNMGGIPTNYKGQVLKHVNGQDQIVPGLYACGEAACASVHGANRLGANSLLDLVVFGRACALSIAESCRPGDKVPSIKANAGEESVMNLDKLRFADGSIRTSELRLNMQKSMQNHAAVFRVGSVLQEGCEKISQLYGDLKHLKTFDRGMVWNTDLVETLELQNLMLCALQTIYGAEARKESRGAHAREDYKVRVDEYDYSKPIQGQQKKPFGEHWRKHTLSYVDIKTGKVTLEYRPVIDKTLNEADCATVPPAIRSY
# T1 sequence (Q9CQA3 31-282): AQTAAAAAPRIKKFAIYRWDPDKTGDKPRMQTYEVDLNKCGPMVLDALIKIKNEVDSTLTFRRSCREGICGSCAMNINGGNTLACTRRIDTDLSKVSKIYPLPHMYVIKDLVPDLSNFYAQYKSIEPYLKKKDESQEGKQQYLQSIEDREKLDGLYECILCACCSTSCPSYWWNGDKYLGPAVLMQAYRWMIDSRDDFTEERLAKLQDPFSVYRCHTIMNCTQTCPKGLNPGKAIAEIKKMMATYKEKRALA
# T1 sequence (Q9CZB0 30-169): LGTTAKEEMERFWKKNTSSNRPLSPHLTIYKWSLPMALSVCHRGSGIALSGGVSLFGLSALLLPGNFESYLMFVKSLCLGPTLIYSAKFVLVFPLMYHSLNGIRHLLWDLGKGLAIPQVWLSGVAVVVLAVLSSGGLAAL
# T1 sequence (Q9CXV1 57-159): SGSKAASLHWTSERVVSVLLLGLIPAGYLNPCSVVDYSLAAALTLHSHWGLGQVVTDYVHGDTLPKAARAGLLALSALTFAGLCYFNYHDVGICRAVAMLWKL
molecule,measurement,setting,value
Cc1c(C)c2c(c(C)c1OC(=O)CCCCCC(=O)O)CCC(C)(CCCC(C)CCCC(C)CCCC(C)C)O2 (centres unmarked) [Compound 24],pro-apoptotic activity,[1],no activity at all
"O=C(O)C(=O)CBr [Compound 3-BP, 3-bromopyruvate, reference compound]",cellular ATP levels,[2],more potent inhibitors than α-TOS
same,apoptosis,[3],"strikingly resistant to killing by 3-BP, even with concentrations as high as 100 μM"
same,apoptosis after Akt1 knock-down,[3],particularly marked increase in cytotoxic responsiveness; also recorded: sensitizes
same,apoptosis,[4],more sensitive to killing by 3-BP under hypoxia than normoxia
same,complex II-mediated MTT reduction,"[5]; absence of added succinate, 4 h",potent inhibitors of the complex II-mediated MTT reduction
same,inhibition of MTT reduction after MitoQ pre-incubation,[5],not significantly different
same,enzymatic reduction of MTT,[5],significant decreases occurring in the levels of MTT reduction
same,tumor growth,[6],either growth arrest or partial regression
CCC(=O)Oc1c(C)c(C)c2c(c1C)CCC(C)(CCCC(C)CCCC(C)CCCC(C)C)O2 (centres unmarked) [Compound 19],pro-apoptotic activity,[7],inactive
COc1c(C)c(C)c2c(c1C)CCC(C)(CCCC(C)CCCC(C)CCCC(C)C)O2 (centres unmarked) [Compound 18],pro-apoptotic activity,[8],inactive
Cc1c(C)c2c(c(C)c1OC(=O)C(=O)O)CCC(C)(CCCC(C)CCCC(C)CCCC(C)C)O2 (centres unmarked) [Compound 10],cytotoxicity in mice inoculated with B16-F1 melanoma cells,[9],non-selective cytotoxicity
"LTVSPWY-α-TOS: adduct of α-TOS linked to the heptapeptide LTVSPWY (SEQ ID NO 1) (also: α-tocopheryl succinate adduct, attachment site not given here)",tumour volume,"[10]; day 15, 5 μmol per dose per mouse i.p., representative tumour, volume −40 mm^3 at onset",34.8 mm^3
same,relative reduction in size of treated tumors compared to the untreated control,"[10]; mouse, in vivo",90%
Cc1cc(OC(=O)CCC(=O)O)c(C)c2c1OC(C)(CCCC(C)CCCC(C)CCCC(C)C)CC2 (centres unmarked) [Compound 32],"IC50, relative to α-TOS",[11],50% of α-TOS
CC(C=CC1=C(C)CCCC1(C)C)=CC=CC(C)=CC(=O)Oc1c(C)c(C)c2c(c1C)CCC(C)(CCCC(C)CCCC(C)CCCC(C)C)O2 (centres unmarked) [Compound 28],IC50,[12],100 to 1000 nM
same,agonism at retinoic acid receptors,[13],acted as agonists for retinoic acid receptors (RARs)
CCOC(=O)CCC(=O)Oc1c(C)c(C)c2c(c1C)CCC(C)(CCCC(C)CCCC(C)CCCC(C)C)O2 (centres unmarked) [Compound 25],pro-apoptotic activity,[1],without pro-apoptotic activity
Cc1c(C)c2c(c(C)c1OC(=O)CC(=O)O)CCC(C)(CCCC(C)CCCC(C)CCCC(C)C)O2 (centres unmarked) [Compound 11],cytotoxicity in mice inoculated with B16-F1 melanoma cells,[9],non-selective cytotoxicity
CC(C=CC1=C(C)CCCC1(C)C)=CC=CC(C)=CC(=O)Oc1c(C)c(C)c2c(c1C)CCC(C)(CCCC(C)CCCC(C)CCCC(C)C)O2 (centres unmarked) [Compound 29],agonism at retinoic acid receptors,[13],acted as agonists for retinoic acid receptors (RARs)
"O=C(CC(=O)C(F)(F)F)c1cccs1 [TTFA, 4,4,4-trifluoro-1-(2-thienyl)-1,3-butanedione]",inhibition of MTT reduction after MitoQ pre-incubation,[5],significantly overcome by pre-incubation of the cells with MitoQ
same,enzymatic reduction of MTT,[5],significantly inhibited the enzymatic reduction of MTT
same,toxicity to cells,[14],toxic to all cells
B1,cellular ATP levels,[2],more potent inhibitors than α-TOS
same,apoptosis,[3],much more resistant to apoptosis
same,apoptosis after Akt1 knock-down,[3],sensitizes
